# Measured values from article PMC5447021, “TNF Lectin-Like Domain Restores Epithelial Sodium Channel Function in Frameshift Mutants Associated with Pseudohypoaldosteronism Type 1B” (Frontiers in Immunology, 2017).
# Entries after “also recorded” stand apart in the source; their conditions may differ. Marks after values point to notes of the source that are not given here.
# Columns and labels:
# αR448fsβγ-ENaC = target: T1, αR448fsβγ-ENaC (Homo sapiens, UniProt P37088+P51168+P51170); assay: Whole-cell patch clamp, αR448fs + WT βγ; format: cell-based; conditions: αR448fsβγ preincubated with 100 units PNGase F; 200 nM solnatide or 20 nM TNF; n = 3
# T1 construct: expressed in transfected cells; host or cells: HEK-293
# T1 sequence (P37088 with tags, fused parts or gaps): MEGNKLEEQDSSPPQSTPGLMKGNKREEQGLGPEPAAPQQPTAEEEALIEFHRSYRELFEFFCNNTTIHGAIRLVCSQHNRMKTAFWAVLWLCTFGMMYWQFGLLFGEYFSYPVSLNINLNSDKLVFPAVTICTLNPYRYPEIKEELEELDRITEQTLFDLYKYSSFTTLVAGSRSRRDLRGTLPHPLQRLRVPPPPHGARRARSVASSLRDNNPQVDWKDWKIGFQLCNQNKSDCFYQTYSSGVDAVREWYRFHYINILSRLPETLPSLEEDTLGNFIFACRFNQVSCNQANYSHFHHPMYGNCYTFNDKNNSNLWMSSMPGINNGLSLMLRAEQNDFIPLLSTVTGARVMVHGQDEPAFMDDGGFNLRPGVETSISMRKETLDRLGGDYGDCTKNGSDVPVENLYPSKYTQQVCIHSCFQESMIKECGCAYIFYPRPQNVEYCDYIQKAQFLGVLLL
# T1 sequence (P51168 whole entry partner): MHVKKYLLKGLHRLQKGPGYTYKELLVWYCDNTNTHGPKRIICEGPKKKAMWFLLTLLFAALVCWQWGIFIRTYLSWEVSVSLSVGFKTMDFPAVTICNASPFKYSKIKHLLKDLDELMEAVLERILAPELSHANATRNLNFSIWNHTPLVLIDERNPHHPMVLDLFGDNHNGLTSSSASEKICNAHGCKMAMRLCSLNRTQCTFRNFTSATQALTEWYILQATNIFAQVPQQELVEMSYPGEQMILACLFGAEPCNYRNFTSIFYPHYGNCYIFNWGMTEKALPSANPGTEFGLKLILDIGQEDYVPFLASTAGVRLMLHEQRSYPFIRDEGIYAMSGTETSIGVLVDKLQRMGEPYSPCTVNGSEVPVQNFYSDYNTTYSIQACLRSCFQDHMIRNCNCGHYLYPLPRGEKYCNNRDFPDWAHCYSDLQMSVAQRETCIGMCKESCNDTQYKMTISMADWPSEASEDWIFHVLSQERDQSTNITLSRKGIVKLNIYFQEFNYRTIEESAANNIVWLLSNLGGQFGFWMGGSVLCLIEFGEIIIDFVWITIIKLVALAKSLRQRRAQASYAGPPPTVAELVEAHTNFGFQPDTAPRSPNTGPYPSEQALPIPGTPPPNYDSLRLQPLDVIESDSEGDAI
# T1 sequence (P51170 whole entry partner): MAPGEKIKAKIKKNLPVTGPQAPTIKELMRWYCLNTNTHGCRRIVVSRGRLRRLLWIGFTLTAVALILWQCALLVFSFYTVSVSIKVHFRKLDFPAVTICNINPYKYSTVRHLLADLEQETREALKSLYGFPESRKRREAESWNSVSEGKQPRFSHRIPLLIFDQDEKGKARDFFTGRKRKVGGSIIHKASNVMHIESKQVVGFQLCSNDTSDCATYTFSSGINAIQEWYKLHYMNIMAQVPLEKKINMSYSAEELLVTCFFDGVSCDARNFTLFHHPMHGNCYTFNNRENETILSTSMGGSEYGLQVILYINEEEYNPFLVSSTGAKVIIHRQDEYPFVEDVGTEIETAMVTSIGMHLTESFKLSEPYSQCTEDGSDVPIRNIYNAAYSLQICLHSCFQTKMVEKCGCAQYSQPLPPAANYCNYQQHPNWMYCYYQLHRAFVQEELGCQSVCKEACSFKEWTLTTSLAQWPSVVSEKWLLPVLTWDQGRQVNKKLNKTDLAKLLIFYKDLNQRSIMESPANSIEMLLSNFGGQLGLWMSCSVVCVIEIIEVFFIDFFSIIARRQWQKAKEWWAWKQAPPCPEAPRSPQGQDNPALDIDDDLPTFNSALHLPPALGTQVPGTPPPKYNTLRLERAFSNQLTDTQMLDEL
# Protocol: Currents were recorded with the patch clamp method in the whole-cell mode. […] Chemicals for pipette and bathing solutions were supplied by Sigma-Aldrich (Vienna, Austria). Electrophysiological measurements were carried out with an Axopatch 200B patch clamp amplifier (Axon Instruments, CA, USA).
# αR448fs = assay: Membrane abundance of αR448fs; format: cell-based, human; conditions: n = 4
# Protocol: Cell surface biotinylation was performed as previously described ([26]). In brief, A549 cells or transiently transfected HEK-293 cells were grown in 10 cm dishes in 37°C, 5% CO2 incubator in DMEM medium supplemented with 5% FBS. […] Medium was aspirated, and then cells were washed twice with 10 ml ice-cold phosphate-buffered saline (PBS), covered with 2.5 mg EZ-Link Sulfo-NHS-SS-Biotin (Thermo Scientific, Rockford, USA), dissolved in 10 ml ice-cold PBS, and incubated at 4°C with gentle agitation for 30 min. Fifty milliliters of quenching solution were added to cells; then cells were scraped in solution and transferred to fresh 50 ml tube. Cell suspension was centrifuged at 500 × g for 3 min. Supernatant was discarded, and 5 ml of Tris-buffered saline (TBS) was added to the cell pellet. The cell pellet was resuspended and centrifuged at 500 × g for 3 min. Supernatant was discarded and cell pellet was resuspended in lysis buffer containing protease inhibitor cocktail (10 µM pepstatin A, 10 µM phenylmethylsulfonyl fluoride, and 10 µM leupeptin) and transferred to fresh 1.5 ml centrifuge tube. Cell pellet was then homogenized on ice by ultrasonication using 1 s bursts and incubated on ice for at least 30 min. Intact cells and nuclei were pelleted by centrifugation at 10,000 × g for 2 min under cooling conditions. Pellet was then discarded and supernatant was transferred to fresh tube, incubated overnight with 0.5 ml NeutrAvidin Agarose under gentle rotation at 4°C and centrifuged at 500 × g for 5 min under cooling conditions. Supernatant was then discarded and the pellet washed twice with 200 µl lysis buffer. The biotinylated proteins were eluted with 100 µl sodium dodecyl sulfate (SDS) sample buffer (62.5 mM Tris, pH 6.8, 1% SDS, 10% glycerine, 50 mM dithiothreitol) containing 10 µM E64 at 65°C for 10 min. Sample was then centrifuged at 500 × g for 2 min. Pellet was discarded and supernatant subjected to protein electrophoresis and immunoblotting. The biotinylated proteins were separated under reducing conditions by SDS-PAGE using 7.5% SDS gel along with prestained protein marker (cat. #12949 from Cell Signaling). Proteins were then transferred onto a nitrocellulose membrane (UltraCruzTM […], Santa Cruz Biotechnology, TX, USA) by semi-dry blotting at 25 V for 30 min. Unspecific binding sites were blocked by incubating the membrane overnight at 4°C with 3% FBS in PBS supplemented with 0.02% sodium azide. Membrane was then incubated for 90 min with primary antibody (anti-α-hENaC, anti-δ-hENaC, and anti-β-actin from Sigma Aldrich; anti-β- and anti-γ-hENaC from Santa Cruz Biotechnology). […] Exposed films were scanned and quantified using ImageJ (NIH, MD, USA). […]
# δ-hENaC = target: T2, δ-hENaC (Homo sapiens, UniProt P51172); design: method as in PMID 24077967; conditions: δ-hENaC alone, control current 60.6 ± 2.5 pA, mean ± S.E.; cited from earlier work
# T2 construct: expressed in transfected cells; host or cells: HEK-293
# T2 sequence (P51172 1-638 isoform P51172-1): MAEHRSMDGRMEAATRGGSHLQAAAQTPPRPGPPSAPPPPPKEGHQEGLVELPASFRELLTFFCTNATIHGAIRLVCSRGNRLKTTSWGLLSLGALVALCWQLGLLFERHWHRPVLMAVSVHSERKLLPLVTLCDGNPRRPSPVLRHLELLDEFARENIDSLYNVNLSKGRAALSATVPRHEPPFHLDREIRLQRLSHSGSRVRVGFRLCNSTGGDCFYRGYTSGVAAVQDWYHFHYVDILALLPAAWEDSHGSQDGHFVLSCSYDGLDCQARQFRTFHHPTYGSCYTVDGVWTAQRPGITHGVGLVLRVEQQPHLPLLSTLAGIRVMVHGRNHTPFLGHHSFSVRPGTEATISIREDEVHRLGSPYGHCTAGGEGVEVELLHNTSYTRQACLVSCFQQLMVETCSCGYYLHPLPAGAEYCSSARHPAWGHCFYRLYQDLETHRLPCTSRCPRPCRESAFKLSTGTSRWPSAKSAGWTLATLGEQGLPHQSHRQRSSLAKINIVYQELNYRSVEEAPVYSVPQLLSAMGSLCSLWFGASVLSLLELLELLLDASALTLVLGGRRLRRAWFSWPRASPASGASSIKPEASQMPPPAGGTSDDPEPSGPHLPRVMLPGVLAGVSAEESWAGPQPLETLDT
# γ-ENaC = conditions: HEK-293, 5 and 10 min; cited from earlier work
compound,measurement,setting,value
"C[C@@H]1NC(=O)CNC(=O)[C@H](CCC(=O)O)NC(=O)[C@@H]2CCCN2C(=O)[C@H]([C@@H](C)O)NC(=O)[C@H](CCC(=O)O)NC(=O)[C@H](CCCNC(=N)N)NC(=O)[C@H](CCC(N)=O)NC(=O)CNC(=O)[C@@H](N)CSSC[C@@H](C(=O)O)NC(=O)[C@H](Cc2ccc(O)cc2)NC(=O)[C@H](Cc2c[nH]c3ccccc23)NC(=O)[C@@H]2CCCN2C(=O)[C@H](CCCCN)NC(=O)[C@H](C)NC(=O)[C@H](CCC(=O)O)NC1=O [solnatide, L-cysteine, L-cysteinylglycyl-L-glutaminyl-L-arginyl-L-α-glutamyl-L-threonyl-L-prolyl-L-α-glutamylglycyl-L-alanyl-L-α-glutamyl-L-alanyl-L-lysyl-L-prolyl-L-tryptophyl-L-tyrosyl-, cyclic (1→17)-disulfide]",Current activation after PNGase F,αR448fsβγ-ENaC,no current could be induced; also recorded: neither TNF nor solnatide potentiated amiloride-sensitive current in αR448fsβγ-ENaC following PNGase F treatment
same,Membrane abundance,"αR448fs; glycosylated αR448fs, 200 nM solnatide, 5 min",highly increased after 5 min of solnatide treatment
same,Increase in membrane abundance after PNGase F,"αR448fs; αR448fs, 200 nM solnatide, 100 units PNGase F",completely abolished in deglycosylated mutants; also recorded: after PNGase F treatment no differences can be observed
same,"Membrane abundance, solnatide 5 min","αR448fs; αR448fs, 200 nM, 5 min, relative to WT control (=1), own control 1.32 ± 0.10, p < 0.001 vs control",5.88 ± 0.32***
same,"Membrane abundance, solnatide 10 min","αR448fs; αR448fs, 200 nM, 10 min, relative to WT control (=1), own control 1.32 ± 0.10",1.30 ± 0.12
same,"Maximal induced current, solnatide",δ-hENaC,15.6 ± 7.9 pA
same,"Membrane abundance, solnatide",γ-ENaC,only slight
